Converted amounts (≈) assume the structure as drawn. Read-outs that look alike come from different tables or passages of the source.
Columns and labels:
[1] = tested on: L. major promastigotes; assay: L. major promastigotes from 4-days cultures, 3H-thymidine uptake (Examples 5, 14); assay type: cell-based, Leishmania major; settings: Leishmania major, Table 14.1, read-out: percentage inhibition of promastigotes (upper figure)
In short: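 Promastigotes harvested on day 4 of culture were exposed to compound, then pulsed with 100 μC 3H-thymidine for a further 18 h. Cells were collected on filter paper, washed, and incorporated radioactivity counted by scintillation.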

[2] = tested on: chloroquine-sensitive P. falciparum 3D7A strain; assay: In vitro growth of P. falciparum 3D7A, 3H-hypoxanthine uptake (Example 15); assay type: cell-based, Plasmodium falciparum
[3] = tested on: human lymphocytes; assay: Lymphocyte Proliferation Assay, 3H-thymidine incorporation (Example 13); settings: Homo sapiens, Lymphocyte, read-out: inhibition of lymphocytes (lower figure)
[4] = tested on: P. falciparum; assay: P. falciparum growth in vitro (Table 14.1, strain not stated); assay type: cell-based; settings: Plasmodium falciparum, read-out: inhibition of malaria parasites (middle figure) (converted)
Method: The P. falciparum experimental setup was as described in Example 15.
Testing of the effect of drugs and serum on the in vitro growth of the parasites. The experiments in which compounds were tested for their ability to inhibit parasite growth were performed by a modification of the method originally described by Jensen et al. (1982). Fifty μl of parasitized erythrocytes (parasitemia approximately 1%) in a concentration of 5×10^8/ml and 50 μl of RPMI medium containing different concentrations of the test compound was added to each well of a 96 well flat-bottomed microtiter plate (Nunc). The cultures were then incubated for 48 hours, 24 hours before termination of the culture adding 20 μl of 3-H-hypoxanthine (40 uCi/ml) (New England Nuclear, Boston, Mass., USA) was added to each well. The cultures were then harvested onto glass fiber filters using a Skatron cell harvester (Skatron, Lierbyen, Norway), and the incorporation of 3-H-hypoxanthine into the DNA of dividing parasites was determined by liquid scintillation spectrometry.

[5] = tested on: L. major promastigotes; assay: In vitro growth of L. major promastigotes, 3H-thymidine uptake (Example 4); assay type: cell-based, Leishmania major; settings: in vitro L. major growth test
[6] = tested on: chloroquine resistant P. falciparum DD2 strain; assay: In vitro growth of P. falciparum DD2, 3H-hypoxanthine uptake (Example 15); assay type: cell-based, Plasmodium falciparum; settings: Plasmodium falciparum, DD2, read-out: concentration in which parasite growth was retarded by 50%
[7] = tested on: P. yoelii strain YM; assay: P. yoelii strain YM infection in mice, parasitemia and mortality (Example 16); assay type: in vivo, BALB/c mice
[8] = Rate of the reaction between N-acetyl-L-cysteine and chalcones, HPLC; assay type: physicochemical; settings: methanol-water-potassium phosphate buffer pH 7.5, 30° C.; first order
Source text: The decline of the chalcone concentration was followed by HPLC. The following experimental setups were used: 1. […] 2. […] This system was used i the case of 4′-methoxychalcone. The rate of decline of the chalcone concentration was followed by HPLC. The rate constant was estimated using Grafit and assuming that the reaction followed first order kinetic; i.e.: [c]=[c0]exp(−kt) where [c] is the concentration of the chalcone in question at time t, [c0] is the concentration of the chalcone in question at time zero, k is the rate constant, and t the time.

[9] = D + 10, i.p. 0.5 mg/kg/day once daily D0-D + 3
[10] = D + 12, i.p. 0.5 mg/kg/day once daily D0-D + 3
[11] = D + 14, i.p. 0.5 mg/kg/day once daily D0-D + 3
[12] = D + 16, i.p. 0.5 mg/kg/day once daily D0-D + 3
[13] = D + 16, i.p. 2.5 mg/kg/day once daily D0-D + 3
[14] = D + 18, i.p. 0.5 mg/kg/day once daily D0-D + 3
[15] = D + 18, i.p. 2.5 mg/kg/day once daily D0-D + 3
[16] = D + 20, i.p. 0.5 mg/kg/day once daily D0-D + 3
[17] = D + 20, i.p. 2.5 mg/kg/day once daily D0-D + 3
[18] = D + 20, i.p. 5 mg/kg/day once daily D0-D + 3

O=C(/C=C/c1ccccc1)c1ccc(O)cc1 [4′-Hydroxychalcone, 4′-hydroxychalcone]
inhibition at 0.5 µg/mL ([1]; 0.5 μg/ml): 26.4 ± 6.5%
inhibition at 1 µg/mL ([1]; 1 μg/ml): 37.3 ± 13.6%
inhibition at 5 µg/mL ([1]; 5 μg/ml): 73.4 ± 15.3%
inhibition at 10 µg/mL ([1]; 10 μg/ml): 90.1 ± 6.5%
IC50 ([2]; Plasmodium falciparum; read-out: concentration in which growth was retarded by 50%): 1 to 5 µg/mL (≈ 4.46 to 22.3 µM)
Percentage inhibition of 3H-hypoxanthine uptake (mean ± SEM) ([2]; title: percentage inhibition of 3H-hypoxanthine uptake; 0.5 μg/ml): 29.9 ± 10.7%
Percentage inhibition of 3H-hypoxanthine uptake (mean ± SEM) ([2]; title: percentage inhibition of 3H-hypoxanthine uptake; 1 μg/ml): 40.5 ± 11.1%
Percentage inhibition of 3H-hypoxanthine uptake (mean ± SEM) ([2]; title: percentage inhibition of 3H-hypoxanthine uptake; 5 μg/ml): 64.2 ± 8.5%
Percentage inhibition of 3H-hypoxanthine uptake (mean ± SEM) ([2]; title: percentage inhibition of 3H-hypoxanthine uptake; 10 μg/ml): 95.5 ± 1.1%
inhibition at 1 µg/mL [3]: 3.6%
inhibition at 5 µg/mL [3]: 10.2%
inhibition at 10 µg/mL [3]: 17%
inhibition at 0.5 µg/mL ([4]; 0.5 μg/ml): 29.9%
inhibition at 1 µg/mL ([4]; 1 μg/ml): 40.5%
inhibition at 5 µg/mL ([4]; 5 μg/ml): 64.3%
inhibition at 10 µg/mL ([4]; 10 μg/ml): 95.6%

CC(C)=CCc1c(O)ccc(C(=O)/C=C/c2cc(O)c3c(c2)C=CC(C)(C)O3)c1O [(A)]
antiparasitic effect in bioassay-guided fractionation [5]: Only the latter compound showed major antiparasitic effects

CCN(CC)CCCC(C)Nc1ccnc2cc(Cl)ccc12 (stereo not shown) [Chloroquine, chloroquine phosphate, reference compound]
IC50 [6]: 0.075 to 0.15 µg/mL
IC50 ([2]; Plasmodium falciparum, read-out: concentration in which growth was retarded by 50%): 38 to 75 µg/mL
Percentage inhibition of 3H-hypoxanthine uptake (mean ± SEM) ([2]; title: percentage inhibition of 3H-hypoxanthine uptake; 38 ng/ml): 34.0 ± 6.1%
Percentage inhibition of 3H-hypoxanthine uptake (mean ± SEM) ([2]; title: percentage inhibition of 3H-hypoxanthine uptake; 75 ng/ml): 80.2 ± 3.7%
Percentage inhibition of 3H-hypoxanthine uptake (mean ± SEM) ([2]; title: percentage inhibition of 3H-hypoxanthine uptake; 150 ng/ml): 97.1 ± 1.0%
Percentage inhibition of 3H-hypoxanthine uptake (mean ± SEM) ([2]; title: percentage inhibition of 3H-hypoxanthine uptake; 300 ng/ml): 98.8 ± 0.3%
% parasitemia (mean ± SEM) ([7]; D + 4, i.p. 0.5 mg/kg/day once daily D0-D + 3): 0.9 ± 0.5%
% parasitemia (mean ± SEM) ([7]; D + 4, i.p. 2.5 mg/kg/day once daily D0-D + 3): 0.2 ± 0.2%
% parasitemia (mean ± SEM) ([7]; D + 4, i.p. 5 mg/kg/day once daily D0-D + 3): 0.02 ± 0.04%
% parasitemia (mean ± SEM) ([7]; D + 6, i.p. 0.5 mg/kg/day once daily D0-D + 3): 24 ± 8.6%
% parasitemia (mean ± SEM) ([7]; D + 6, i.p. 2.5 mg/kg/day once daily D0-D + 3): 2.4 ± 2.2%
% parasitemia (mean ± SEM) ([7]; D + 6, i.p. 5 mg/kg/day once daily D0-D + 3): 0%
% parasitemia (mean ± SEM) ([7]; D + 8, i.p. 0.5 mg/kg/day once daily D0-D + 3): 57.4 ± 4.2%
% parasitemia (mean ± SEM) ([7]; D + 8, i.p. 2.5 mg/kg/day once daily D0-D + 3): 28.3 ± 16.2%
% parasitemia (mean ± SEM) ([7]; D + 8, i.p. 5 mg/kg/day once daily D0-D + 3): 0.1 ± 0.17%
% parasitemia (mean ± SEM) [7, 9]: 66.3 ± 6.6%
mortality (no. of dead mice/total no. of tested mice) [7, 9]: (2/5)
% parasitemia (mean ± SEM) ([7]; D + 10, i.p. 2.5 mg/kg/day once daily D0-D + 3): 33.7 ± 19.8%
% parasitemia (mean ± SEM) ([7]; D + 10, i.p. 5 mg/kg/day once daily D0-D + 3): 2.8 ± 2.7%
% parasitemia (mean ± SEM) [7, 10]: 49.7 ± 17.6%
mortality (no. of dead mice/total no. of tested mice) [7, 10]: (2/5)
% parasitemia (mean ± SEM) ([7]; D + 12, i.p. 2.5 mg/kg/day once daily D0-D + 3): 40.2 ± 21%
% parasitemia (mean ± SEM) ([7]; D + 12, i.p. 5 mg/kg/day once daily D0-D + 3): 13 ± 4.4%
% parasitemia (mean ± SEM) [7, 11]: 35.3 ± 4.7%
mortality (no. of dead mice/total no. of tested mice) [7, 11]: (2/5)
% parasitemia (mean ± SEM) ([7]; D + 14, i.p. 2.5 mg/kg/day once daily D0-D + 3): 37.4 ± 19.8%
% parasitemia (mean ± SEM) ([7]; D + 14, i.p. 5 mg/kg/day once daily D0-D + 3): 22.4 ± 6.1%
% parasitemia (mean ± SEM) [7, 12]: 18.5 ± 19.1%
mortality (no. of dead mice/total no. of tested mice) [7, 12]: (3/5)
% parasitemia (mean ± SEM) [7, 13]: 4.7 ± 4.6%
mortality (no. of dead mice/total no. of tested mice) [7, 13]: (2/5)
% parasitemia (mean ± SEM) ([7]; D + 16, i.p. 5 mg/kg/day once daily D0-D + 3): 62.2 ± 24.5%
% parasitemia (mean ± SEM) [7, 14]: 9%
mortality (no. of dead mice/total no. of tested mice) [7, 14]: 4/5
% parasitemia (mean ± SEM) [7, 15]: 0%
mortality (no. of dead mice/total no. of tested mice) [7, 15]: 2/5
% parasitemia (mean ± SEM) ([7]; D + 18, i.p. 5 mg/kg/day once daily D0-D + 3): 75.2 ± 3.3%
% parasitemia (mean ± SEM) [7, 16]: 0%
mortality (no. of dead mice/total no. of tested mice) [7, 16]: 4/5
% parasitemia (mean ± SEM) [7, 17]: 0%
mortality (no. of dead mice/total no. of tested mice) [7, 17]: 2/5
% parasitemia (mean ± SEM) [7, 18]: 50 ± 16.4%
mortality (no. of dead mice/total no. of tested mice) [7, 18]: (1/5)

O=C(/C=C/c1ccccc1)c1ccccc1 [drawing 102, chalcone, reference compound]
Estimated rate constant k [8]: 0.034 min⁻¹

COc1ccc(C(=O)/C=C/c2ccccc2)cc1 [drawing 103, 4′-methoxychalcone]
Estimated rate constant k [8]: 0.016 min⁻¹

COc1ccc(/C=C/C(=O)c2ccccc2)c(OC)c1 [drawing 104]
Estimated rate constant k [8]: 0.0033 min⁻¹

O=C(/C=C/c1ccc(O)cc1)c1ccc(O)cc1 [drawing 105]
Estimated rate constant k [8]: 0.0020 min⁻¹
